Experimental data published in US6774139B1, “Dual function microbicides” (Parker Hughes Institute, priority 2000, dated 2004).
Where two headings read alike, the source gives them in different places.

Legend:
[1] = tested on: normal human vaginal epithelial cells; assay: MTT cell viability assay, vaginal epithelial cells; assay type: cell-based; conditions: read-out: IC50[MTT] vaginal epithelial cells
Description: (§1) Briefly, exponential growing vaginal, ectocervical, and endocervical epithelial cells were seeded into 96-well plates at a density of 2×10^4 cells/well and incubated for 24 h at 37° C. prior to drug exposure. On the day of treatment, culture medium was aspirated from the wells and replaced with fresh medium containing serial two-fold drug concentrations ranging from 7.8 μM to 1000 μM. N-9 (IGEPAL CO-630; Rhone Poulenc, Cranbury, N.J.) was diluted in PBS. Triplicate wells were used for each treatment. Culture plates were then incubated for 3 hours before adding 10 μl of MTT solution (5 mg/ml in PBS) to each well. Wells containing only medium and MTT were used as control for each plate. The tetrazolium/formazan reaction was allowed to proceed for 4 hours at 37° C., and then 100 μl of the solubilization buffer (10% sodium dodecyl sulfate in 0.1% HCl) was added to all wells and mixed thoroughly to dissolve the dark blue formazan crystals. After an overnight incubation at 37° C., the OD at 540 nm were measured using a 96-well multiscanner autoreader with the solubilization buffer serving as blank. To translate the OD540 values into the number of live cells in each well, the OD540 values were compared to those of standard OD540-versus-cell number curves generated for each cell line. The percent survival was calculated using the formula: % survival=Live cell number [test]/Live cell number [control]×100. The results were expressed as mean IC50 values for three independent experiments. The IC50 [MTT] was defined as the concentration required for 50% reduction in cell survival.
(§2) Cell viability was measured by the MTT assay.

[2] = tested on: normal human ectocervical epithelial cells; assay: MTT cell viability assay, ectocervical epithelial cells; assay type: cell-based; conditions: read-out: IC50[MTT] ectocervical epithelial cells
Description: as §1, §2

[3] = tested on: normal human endocervical epithelial cells; assay: MTT cell viability assay, endocervical epithelial cells; assay type: cell-based; conditions: read-out: IC50[MTT] endocervical epithelial cells
Description: as §1, §2

[4] = tested on: human sperm; assay: sperm immobilizing activity (SIA) by CASA; assay type: cell-based; conditions: for EC50: read-out: EC50 [SIA]; for effective 100% inhibitory concentration (EC100), sperm motility: FIG. 1, CASA
Description: To evaluate the effect of each of the 31 thiourea compounds on human sperm motility and kinematics, highly motile fractions of sperm were prepared from donor semen (n=8) by discontinuous (90-45%) gradient centrifugation using Enhance Plus medium (Conception Technologies, San Diego, Calif.) and the “swim-up” method. The swim-up method was used after density gradient centrifugation, washing, and resuspension of sperm in BWW-3% BSA. Pooled swim-up fraction was washed once prior to spermicidal assay.
All donor semen specimens were obtained after informed consent and in compliance with the guidelines of the Parker Hughes Institute Institutional Review Board. […] The stock solutions of thioureas were prepared in DMSO (100 mM) and diluted in assay medium to yield the desired concentrations (up to 1000 μM). Corresponding volume of DMSO (either 0.5% or 1%) was added to control tubes. After 3 hours of incubation at 37° C., the percentage of motile sperm was evaluated by CASA [53, 62-64]. The percent motilities were compared with sham-treated control suspensions of motile sperm.
For CASA, 5-μl of each sperm suspension was loaded into a 20-μm Microcell slide (Conception Technologies) in a counting chamber at 37° C. At least 5-8 fields per slide were scanned for analysis using a Hamilton Thome Integrated Visual Optical System (IVOS), version 10 instrument (Hamilton Thome Research Inc., Danvers, Mass.). Each field was recorded for 30 seconds. The computer calibrations were set at 30 frames at a frame rate of 30/second.
The sperm kinematics parameters that were determined included numbers of motile (MOT) and progressively (PRG) motile sperm; curvilinear velocity (VCL; a measure of the total distance traveled by a given sperm during the acquisition divided by the time elapsed); average path velocity (VAP; the spatially averaged path that eliminates the wobble of the sperm head), straight line velocity (VSL; the straight-line distance from beginning to end of track divided by time taken), beat cross frequency (BCF; frequency of sperm head crossing sperm average path), the amplitude of lateral head displacement (ALH; the mean width of sperm head oscillation), and the derivatives, straightness (STR=VSL/VAP×100) and linearity (LIN=VSL/VCL×100; departure of sperm track from a straight line). Data from each individual cell track were recorded and analyzed. At least 200 motile sperm were analyzed for each aliquot sampled.

[5] = partition coefficient n-octanol/water (Pa); assay type: physicochemical; conditions: UV absorption
Description: Partition of the test compounds between n-octanol and water as a measure of their lipophilicity was determined by taking the UV absorption of each compound in n-octanol, water-saturated n- octanol (1:1), and n-octanol-saturated water (1:1). The UV absorption maxima were determined by selecting a wavelength with the maximum absorption peak in the water-saturated octanol layer and the corresponding peak in the octanol-saturated water. Three absorption spectra were obtained for each compound. The partion coefficient (Pa) was calculated as the ratio of the compound concentration present in the lipid phase to the compound concentration present in the aqueous phase.

[6] = tested on: HIV-1 strain HTLVIIIB; assay: p24 antigen production in HIV-1 infected PBMCs; assay type: cell-based; conditions: Human immunodeficiency virus 1, PBMC
Description: The HTLVIIIB strain of HIV-1 was propagated in CCRF-CEM cells and the virus stocks obtained from cell-free supernatants of infected cells were titered using MT-2 cells. Cell-free supernatants were harvested and frozen in 1 ml aliquots at −70° C.
Stock solutions (10 mM) of thiourea compounds were prepared in dimethylsulfoxide (DMSO). Cells were cultured for 7 days in 96-well microtiter plates (100 μl/well; 2×10^6 cells/ml, triplicate wells) in the presence and absence of various concentrations (0.001 μM to 100 μM) of the thioureas. Cells from non-infected controls were handled in the same way except the virus was omitted from the preparation. Aliquots of culture supernatants were removed from the wells on the 7th day after infection for p24 antigen as previously described. The p24 enzyme immunoassay was the unmodified kinetic assay available commercially (Coulter Corporation/Immunotech, Inc., Westbrook, Me.). The assay uses a murine monoclonal antibody (mAb) to the HIV core protein coated onto microwell strips to which the antigen present in the test culture supernatant sample binds. The plates were read on a ELISA reader (Molecular Devices, Sunnyvale, Calif.) at 650 nm and p24 levels, expressed as ng/ml, were calculated against known standards supplied by Coulter/Imrunotech, Inc. Percent viral inhibition was calculated by comparing the p24 values for the test substance-treated infected cells with the p24 values for untreated infected cells (i.e., virus controls). […]

[7] = biological target: T1, purified recombinant HIV-1 RT (Human immunodeficiency virus type 1 group M subtype B, UniProt P03366); assay: cell-free Quan-T-RT RT inhibition assay (scintillation proximity); assay type: biochemical; conditions: IC50 [rRT], purified recombinant HIV-1 RT, cell-free
T1 construct: purified recombinant HIV-1 RT
Description: Each of the thirty one thiourea compounds was tested for RT inhibitory activity against purified recombinant HIV-1 RT using the cell-free Quan-T-RT system (Amersham Corp., Arlington Heights, Ill.), which utilizes the scintillation proximity assay principle.

[8] = HIV-1 HTLVIIIB infected human PBMC, p24 antigen on 7th day, read-out: IC50 [p24]
[9] = motile human sperm, 3 hours at 37° C., CASA
[10] = HIV-1 HTLVIIIB infected human PBMC, values in nM, read-out: IC50[p24]

Compound	IC50 ([1]; 3 h)	IC50 ([2]; 3 h)	IC50 ([3]; 3 h)	EC50 ([4]; Homo sapiens, Sperm, 3 h)	IC50 ([1]; 3 h exposure, MTT)	Pa, Partition coefficient [5]	IC50 ([2]; 3 h exposure, MTT)	IC50 ([3]; 3 h exposure, MTT)	IC50 [6, 8]	EC50 [4, 9]	IC50 [7]	IC50 [6, 10]	IC50 ([6]; read-out: IC50 [p24])	IC50 ([6]; read-out: IC50[p24])	effective 100% inhibitory concentration (EC100), sperm motility [4]
CCCCCCCCCc1ccc(OCCOCCOCCOCCOCCOCCOCCOCCOCCO)cc1 [Compound N-9, nonoxynol-9, reference compound]	64 µM	58 µM	32 µM	81 µM											
S=C(NCCc1ccccn1)Nc1ccccn1 [HI 207]					> 1000 µM	2.32	> 1000 µM	> 1000 µM	270 nM	279 µM	0.39 µM				
Fc1ccccc1CCNC(=S)Nc1ccc(Br)cn1 [HI 240]					> 1000 µM	1.20	> 1000 µM	> 1000 µM	< 1 nM	147 µM	0.6 µM	< 1 nM			
S=C(NCCc1ccccc1Cl)Nc1ccc(Br)cn1 [HI 253]					> 1000 µM	1.04	> 1000 µM	> 1000 µM	< 1 nM	70 µM	0.7 µM	< 1 nM			
S=C(NCCC1=CCCCC1)Nc1ccc(Br)cn1 [HI 346]					> 1000 µM	8.6	765 ± 400 µM	580 ± 48 µM		42 µM	0.6 µM		3 nM	3 nM	0.25 mM
S=C(NCCC1=CCCCC1)Nc1ccc(Cl)cn1 [HI 445]					578 ± 25 µM	6.3	692 ± 139 µM	185 ± 21 µM		57 µM			3 nM	3 nM	1 mM
